Measured values as given in PMC6891768 (Marine Drugs, 2019).
“Also recorded” adds a separate entry of the source. Like-named read-outs stand apart in the source and are kept apart here.

How the values were obtained:
[1] = target: T1, Torpedo electric organ membrane nAChRs (Tetronarce californica, UniProt P02710+P02714+P02718); assay: biochemical; assay type: binding
T1 construct: from tissue; host or cells: Torpedo electric organ membranes

rat brain α4β2 nAChR = target: T2, rat brain α4β2 nAChR (Rattus norvegicus, UniProt P09483+P12390); assay: [3H]-cytisine displacement binding, rat brain membranes
T2 construct: from tissue; host or cells: whole rat brain membranes

[2] = Ionization and ring-chain form distribution in water; assay type: physicochemical
From the text: Figure 2 Concentrations of the three major forms of anabaseine as a function of pH as determined by UV spectrophotometry. Left Ordinate: Concentration of each form expressed as % of the total anabaseine concentration. The red curve is the estimated cyclic imine concentration and the blue curve is the concentration of the cyclic iminium or the monocationic ammonium-ketone form of anabaseine (Assuming that KH = 1.0, the concentrations of these ionized forms are equal). Right ordinate: pH dependence of anabaseine inhibition of [^3H]-MCC binding to rat brain α4β2 receptors (Standard error bars included). Anabaseine inhibition (mean ± SEM) at each pH was the average of six replicate measurements.
Since the two monocationic forms show the same pH dependence and the same concentration when expressed as % of total anabaseine, another approach was required to assess their activities separately. We resorted to synthesizing and testing stable analogs that resemble the three anabaseine forms. […] The monocationic ammonium-ketone open-chain form analog selected was 5-methylamino-1-(3-pyridyl)-1-pentanone, MAPP, shown in Figure 1; it mainly ([…]) exists in their open-chain form in water at physiological pH; its cyclic imine or iminium form, N-methylanabaseine, is present in very small concentration (≤5%). […]

[3] = target: T3, human α4β2 neuronal nAChR expressed in tsA201 cells (Homo sapiens, UniProt P17787+P43681); assay: Activation of human α4β2 neuronal nAChR, membrane depolarization FlexStation assay; assay type: cell-based
T3 construct: expressed in transfected cells
Method: Figure 3 Activation of the human α4β2 neuronal nAChR expressed in tsA201 cells as measured by membrane depolarization using the FlexStation assay. Each point generally is the mean of four separate measurements. All responses were normalized with respect to the response of the cells to 0.5 μM epibatidine. Potency and efficacy estimates from these curves are found in Table 1.
TsA201 cells expressing human α4β2 were maintained in media consisting of Dulbecco’s Modified Eagle medium supplemented with 10% FBS, 100 units/mL penicillin and 100 μg/mL streptomycin, 2 mM L-glutamine, 0.5 mg/mL zeocin and 0.6 mg/mL geneticin [55]. Cells were grown in 75 cm^2 culture flasks, which were housed in a humidified incubator (Fisher Scientific, Atlanta, GA, USA at 37 °C in an atmosphere of 5% CO2. They were grown to around 80–90% confluence after harvesting with 0.25% trypsin and being split weekly at a subcultivation ratio of between 1:6 and 1:10.
(§1) Our experimental protocol was based on the initial study of Fitch et al.. Cells were seeded at a density of roughly 5 × 10^4 to 10^5 cells/well in 96-well flat-bottom black wall culture plates coated with 50 μg /ml poly-D-lysine hydrobromide (Sigma-Aldrich, 70–150 kDa) and grown overnight in 100 μL culture medium. A proprietary membrane potential dye obtained from Molecular Devices (San Diego, CA, USA) was prepared by dissolving one bottle of dye into 30 mL of Hanks Saline (pH = 7.4) containing 20 mM HEPES buffer. The cells were incubated with 100 μL of dye for 30 min at 37 °C prior to the robotically controlled concentration-response experiment. Serial dilutions of a compound for dose-response analysis were prepared in 96-well plates by evaporation of a methanolic stock solution and then reconstituted in the appropriate volume of Hanks saline. Fluid transfer and readings were performed by a FlexStation fluorimeter (Molecular Devices). Excitation and emission wavelengths were set to 530 nm and 565 nm with a cutoff of 550 nm. The first 17 s were used as a basal reading. At 18 s, a test compound was added to determine the EC50, followed by addition of 25 μL KCl (40 mM final concentration) at 160 s to serve as a fluorescence calibrant. Compounds that had no measurable depolarizing activity on the TsA201 cells were then tested for their ability to inhibit a 5 µM control ACh response. Data were fitted and graphed with Prism (GraphPad) to determine the EC50.

[4] = target: T4, human fetal (TE671 cells) skeletal muscle nAChR (Homo sapiens, UniProt P02708+P07510+Q07001); assay: Activation of human fetal skeletal muscle nAChR (TE671 cells), membrane depolarization FlexStation assay; assay type: cell-based
T4 construct: endogenous in cells; host or cells: TE671 cells (human)
Method: Figure 4 Activation of the human fetal (TE671 cells) skeletal muscle nAChR by the various stable anabaseine analogs measured by membrane depolarization using the FlexStation assay. Each point is generally the mean of four separate measurements. Responses were normalized to the 5 μM epibatidine response. Potency and efficacy estimates from these curves are found in Table 1.
as §1

rat α7 nAChR = target: T5, rat α7 nAChR (Rattus norvegicus, UniProt Q05941); assay: biochemical; assay type: binding
T5 construct: from tissue; host or cells: rat brain membranes

[5] = test system: vertebrate brain and neuromuscular nAChRs; assay: Overall comparison of agonist potency and binding affinity at vertebrate nAChRs; conditions: for activity relative to that predicted if the one form was solely active: several vertebrate brain and neuromuscular nAChRs
From the text: PTHP was the only anabaseine analog that approached anabaseine in potency and binding affinity.
The ability of a variety of 2-(aryl)-1,4,5,6-tetrahydropyrmidines to block neuromuscular nAChRs and produce teratogenic effects in chick embryos was reported long ago [45, 46]. Some of these compounds were reported to be nAChR agonists. The only study of PTHP on neurons was that of Upshall et al. on leech Retzius cells. Our results also indicate that PTHP is a potent agonist at neuronal as well as neuromuscular nAChRs. […] For PTHP to be equipotent with anabaseine, based on the I^+ form being the only active form, its EC50 would need to be ~1/3 of the EC50 of anabaseine, since the anabaseine (I^+) is ~1/3 of its total concentration.

[6] = no reference given; cited from earlier work
rat brain α4β2 nAChRs [7] = target: T6, rat brain α4β2 nAChRs (Rattus norvegicus, UniProt P09483+P12390); assay: [3H]-methylcarbamylcholine binding to rat brain membranes, pH dependence
T6 construct: from tissue; host or cells: whole rat brain membranes
From the text: Initially, we measured the pH-dependent binding of [^3H]-methylcarbamylcholine ([^3H]-MCC) to rat brain α4β2 nAChRs. In the absence of anabaseine we found a large (approximately 3-fold) enhancement of [^3H]-MCC binding as pH increased from 6.0 to 7.8. While interesting in its own regard, since MCC is permanently ionized, this marked pH dependence of [^3H]-MCC nAChR affinity complicated the analysis of the effect of pH on anabaseine binding, which was indirectly measured by [^3H]-MCC displacement. Anabaseine inhibition of [^3H]-MCC binding at each pH in Figure 2 is expressed with respect to the binding of [^3H]-MCC alone at the same pH, so as to compensate for [^3H]-MCC binding pH dependence. […]
Figure 2 Concentrations of the three major forms of anabaseine as a function of pH as determined by UV spectrophotometry. Left Ordinate: Concentration of each form expressed as % of the total anabaseine concentration. […]
[^3H]-[…] ([^3H]-MCC) binding assays with rat brain membranes were carried out as previously reported with a final concentration of 0.5 nM [^3H]-MCC [8, 54]; 2.8 µM atropine sulfate (Sigma-Aldrich) was added to inhibit binding to muscarinic receptors. […] Nonspecific binding was measured in the presence of 1 mM (S)-nicotine hydrogen tartrate (Sigma-Aldrich). […]

[8] = cited from earlier work
human GABAA receptor = target: T7, human GABAA receptor (UniProt P28472+P62813); assay: GABAA receptor activation, membrane depolarization FlexStation assay (WSS1 cells); assay type: cell-based; conditions: human GABAA receptor in HEK-derived WSS1 cells
T7 construct: host or cells: WSS1 cells (HEK cell line)
Method: Figure 5 Investigation of possible activation of the human GABAA receptor measured by membrane depolarization using a FlexStation assay. Each point is the mean of three separate measurements.
WSS1 cells from ATCC (Manassas, VA, USA) which express functional GABAA receptors were cultured as previously described by Wong et al.. The cells were grown to near confluence and then transferred to black well, clear bottom 96-well assay plates (Corning Incorporated, Corning, NY, USA) 12–18 h prior to the assay. Molecular Devices blue dye (Sunnyvale, CA, USA) was reconstituted as previously described. The WSS1 cells were allowed to come to room temperature, the culture medium was then aspirated, replaced with the blue dye and equilibrated for 30 min before being placed on a FlexStation 3 plate reader (Molecular Devices, Sunnyvale, CA, USA). […] Programmed readings and data analysis were performed as previously described.

rat brain α4β2 nAChRs [9] = target: T6, rat brain α4β2 nAChRs; conditions: read-out: Kd of radioligand with rat brain membranes; cited from earlier work
[10] = displacement of [3H]-cytisine, rat brain membranes, read-out: Ki Neuronal nAChR Rat α4β

T5 sequence (Q05941 23-502): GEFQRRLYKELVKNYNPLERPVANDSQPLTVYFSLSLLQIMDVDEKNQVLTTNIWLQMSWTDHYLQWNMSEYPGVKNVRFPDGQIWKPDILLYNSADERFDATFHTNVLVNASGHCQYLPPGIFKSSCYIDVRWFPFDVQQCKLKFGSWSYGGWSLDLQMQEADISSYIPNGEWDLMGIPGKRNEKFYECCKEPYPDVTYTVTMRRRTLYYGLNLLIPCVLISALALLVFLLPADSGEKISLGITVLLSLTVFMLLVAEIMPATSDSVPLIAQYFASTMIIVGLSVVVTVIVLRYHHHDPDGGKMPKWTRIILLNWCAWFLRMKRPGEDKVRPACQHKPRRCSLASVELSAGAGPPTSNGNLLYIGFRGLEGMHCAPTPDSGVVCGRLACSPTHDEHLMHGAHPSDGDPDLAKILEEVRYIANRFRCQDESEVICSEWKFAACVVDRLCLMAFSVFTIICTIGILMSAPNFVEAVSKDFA
T7 sequence (P62813 28-455): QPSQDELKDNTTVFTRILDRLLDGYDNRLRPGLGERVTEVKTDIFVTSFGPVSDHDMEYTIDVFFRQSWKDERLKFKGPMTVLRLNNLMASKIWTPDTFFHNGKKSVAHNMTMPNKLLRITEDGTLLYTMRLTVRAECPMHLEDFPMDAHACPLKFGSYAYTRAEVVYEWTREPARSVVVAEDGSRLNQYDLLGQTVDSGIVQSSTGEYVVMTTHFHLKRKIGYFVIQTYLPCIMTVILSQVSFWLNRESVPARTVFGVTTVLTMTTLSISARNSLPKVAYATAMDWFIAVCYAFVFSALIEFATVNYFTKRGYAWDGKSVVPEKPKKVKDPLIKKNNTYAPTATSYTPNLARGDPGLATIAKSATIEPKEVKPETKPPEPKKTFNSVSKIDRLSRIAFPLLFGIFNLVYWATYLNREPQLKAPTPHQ
T7 sequence (P28472 26-473): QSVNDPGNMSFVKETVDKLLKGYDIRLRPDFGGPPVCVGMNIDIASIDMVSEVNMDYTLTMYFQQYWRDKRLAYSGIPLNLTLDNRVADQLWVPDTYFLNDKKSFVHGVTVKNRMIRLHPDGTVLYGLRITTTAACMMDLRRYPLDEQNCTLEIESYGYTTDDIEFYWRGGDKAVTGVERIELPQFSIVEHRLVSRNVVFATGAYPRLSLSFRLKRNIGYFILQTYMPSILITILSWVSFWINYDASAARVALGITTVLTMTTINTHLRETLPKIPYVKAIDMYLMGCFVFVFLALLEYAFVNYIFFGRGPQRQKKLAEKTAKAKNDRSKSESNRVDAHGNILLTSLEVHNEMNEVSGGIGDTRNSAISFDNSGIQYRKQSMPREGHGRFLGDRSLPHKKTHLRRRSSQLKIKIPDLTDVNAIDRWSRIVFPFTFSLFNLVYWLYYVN
T7 sequence (P18508 39-466 partner): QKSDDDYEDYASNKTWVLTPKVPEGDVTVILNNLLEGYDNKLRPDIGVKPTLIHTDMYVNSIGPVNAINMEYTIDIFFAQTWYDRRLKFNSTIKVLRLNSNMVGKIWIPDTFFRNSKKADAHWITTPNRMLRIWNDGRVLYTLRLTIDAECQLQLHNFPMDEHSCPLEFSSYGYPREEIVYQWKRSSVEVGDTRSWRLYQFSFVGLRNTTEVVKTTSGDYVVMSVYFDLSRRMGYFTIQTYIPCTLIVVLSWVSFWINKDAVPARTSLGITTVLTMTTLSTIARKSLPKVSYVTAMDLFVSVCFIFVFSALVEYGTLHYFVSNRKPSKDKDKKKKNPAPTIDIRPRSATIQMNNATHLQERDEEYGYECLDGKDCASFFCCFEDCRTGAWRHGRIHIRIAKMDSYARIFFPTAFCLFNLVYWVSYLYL
T1 sequence (P02710 25-461): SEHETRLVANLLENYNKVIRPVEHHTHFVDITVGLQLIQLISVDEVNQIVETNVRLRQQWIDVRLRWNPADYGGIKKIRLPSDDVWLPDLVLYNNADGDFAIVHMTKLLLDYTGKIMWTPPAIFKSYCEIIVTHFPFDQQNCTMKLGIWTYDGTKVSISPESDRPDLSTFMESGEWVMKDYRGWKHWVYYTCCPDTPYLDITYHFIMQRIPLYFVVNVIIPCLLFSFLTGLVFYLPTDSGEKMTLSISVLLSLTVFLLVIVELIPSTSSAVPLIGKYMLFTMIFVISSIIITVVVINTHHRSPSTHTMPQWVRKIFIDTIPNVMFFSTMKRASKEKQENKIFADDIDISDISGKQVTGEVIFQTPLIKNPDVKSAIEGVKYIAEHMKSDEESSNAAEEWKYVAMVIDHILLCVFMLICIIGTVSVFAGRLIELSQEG
T1 sequence (P02714 18-506): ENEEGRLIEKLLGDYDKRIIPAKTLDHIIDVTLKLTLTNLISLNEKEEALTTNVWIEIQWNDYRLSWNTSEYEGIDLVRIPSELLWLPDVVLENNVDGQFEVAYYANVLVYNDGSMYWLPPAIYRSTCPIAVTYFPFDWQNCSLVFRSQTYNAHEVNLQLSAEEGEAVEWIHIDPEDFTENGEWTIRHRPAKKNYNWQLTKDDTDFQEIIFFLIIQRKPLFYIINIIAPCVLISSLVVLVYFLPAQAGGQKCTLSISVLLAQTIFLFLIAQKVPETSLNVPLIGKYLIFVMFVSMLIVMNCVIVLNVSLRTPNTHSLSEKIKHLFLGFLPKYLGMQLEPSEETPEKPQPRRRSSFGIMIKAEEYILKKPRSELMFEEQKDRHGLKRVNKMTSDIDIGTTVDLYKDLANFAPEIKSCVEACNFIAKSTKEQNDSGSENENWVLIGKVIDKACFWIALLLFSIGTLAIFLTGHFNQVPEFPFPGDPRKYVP
T1 sequence (P02712 25-493, further chain): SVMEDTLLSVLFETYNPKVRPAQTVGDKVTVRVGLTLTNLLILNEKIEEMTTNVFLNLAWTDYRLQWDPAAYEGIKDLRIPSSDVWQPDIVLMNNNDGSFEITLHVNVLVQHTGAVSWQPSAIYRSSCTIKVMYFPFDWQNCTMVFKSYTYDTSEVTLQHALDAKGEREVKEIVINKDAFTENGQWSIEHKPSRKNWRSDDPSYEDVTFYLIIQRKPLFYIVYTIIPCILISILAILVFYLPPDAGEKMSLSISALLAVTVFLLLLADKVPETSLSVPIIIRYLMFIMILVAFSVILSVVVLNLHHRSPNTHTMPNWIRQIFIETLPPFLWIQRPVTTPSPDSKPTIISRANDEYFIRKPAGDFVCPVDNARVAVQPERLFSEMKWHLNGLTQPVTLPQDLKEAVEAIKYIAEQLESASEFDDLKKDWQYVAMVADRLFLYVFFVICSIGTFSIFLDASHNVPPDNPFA
T1 sequence (P02718 22-522): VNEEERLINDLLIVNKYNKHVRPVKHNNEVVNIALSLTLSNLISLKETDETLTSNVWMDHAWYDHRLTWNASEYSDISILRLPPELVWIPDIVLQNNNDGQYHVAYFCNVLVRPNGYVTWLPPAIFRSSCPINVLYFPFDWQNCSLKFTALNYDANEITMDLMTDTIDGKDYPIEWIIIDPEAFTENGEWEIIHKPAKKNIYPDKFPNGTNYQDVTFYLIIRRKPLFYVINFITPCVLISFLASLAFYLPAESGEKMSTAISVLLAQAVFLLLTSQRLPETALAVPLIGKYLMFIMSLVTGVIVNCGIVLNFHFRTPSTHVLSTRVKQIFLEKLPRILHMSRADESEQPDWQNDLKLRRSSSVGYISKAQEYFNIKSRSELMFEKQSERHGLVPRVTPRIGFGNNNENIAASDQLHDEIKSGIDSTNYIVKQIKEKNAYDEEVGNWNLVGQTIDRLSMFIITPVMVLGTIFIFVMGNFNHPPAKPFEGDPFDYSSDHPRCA
T3 sequence (P43681 29-627): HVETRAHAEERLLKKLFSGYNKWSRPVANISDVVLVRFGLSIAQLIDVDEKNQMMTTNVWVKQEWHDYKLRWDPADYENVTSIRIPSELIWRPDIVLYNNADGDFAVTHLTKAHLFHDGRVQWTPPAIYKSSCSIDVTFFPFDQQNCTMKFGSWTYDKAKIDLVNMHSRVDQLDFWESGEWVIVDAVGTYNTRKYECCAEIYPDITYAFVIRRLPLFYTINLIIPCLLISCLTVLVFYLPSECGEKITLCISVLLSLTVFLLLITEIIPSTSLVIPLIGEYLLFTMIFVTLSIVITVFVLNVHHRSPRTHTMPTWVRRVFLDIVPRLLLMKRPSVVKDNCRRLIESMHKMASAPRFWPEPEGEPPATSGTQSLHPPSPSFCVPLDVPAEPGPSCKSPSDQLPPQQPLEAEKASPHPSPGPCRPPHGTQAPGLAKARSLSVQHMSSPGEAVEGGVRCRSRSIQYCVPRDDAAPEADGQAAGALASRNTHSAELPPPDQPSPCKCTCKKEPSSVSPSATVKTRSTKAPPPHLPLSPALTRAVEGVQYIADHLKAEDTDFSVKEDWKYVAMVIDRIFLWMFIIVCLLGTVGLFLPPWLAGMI
T3 sequence (P17787 26-502): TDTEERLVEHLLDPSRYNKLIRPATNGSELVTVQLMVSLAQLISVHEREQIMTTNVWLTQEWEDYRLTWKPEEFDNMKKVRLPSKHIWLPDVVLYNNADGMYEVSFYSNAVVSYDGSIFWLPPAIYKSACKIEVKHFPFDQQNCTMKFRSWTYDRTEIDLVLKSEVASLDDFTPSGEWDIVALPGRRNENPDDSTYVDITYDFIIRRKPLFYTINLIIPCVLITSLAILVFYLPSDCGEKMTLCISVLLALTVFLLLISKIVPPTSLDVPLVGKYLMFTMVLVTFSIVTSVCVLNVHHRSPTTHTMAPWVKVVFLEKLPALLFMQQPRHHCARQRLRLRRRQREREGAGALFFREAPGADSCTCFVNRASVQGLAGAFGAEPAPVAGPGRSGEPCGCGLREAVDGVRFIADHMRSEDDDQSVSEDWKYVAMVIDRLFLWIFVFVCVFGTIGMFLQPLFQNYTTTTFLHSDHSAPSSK

For `c1ccc(-c2cccnc2)nc1` [2,3′-Bipyridyl, 2,3′-bipyridyl], the IC50 [1] was 343 ± 48 µM, the Ki (rat brain α4β2 nAChR; [10]) was over 50 µM and the “fraction of molecules unionized” value ([2]; pH 7.4) was over 99.9%. For the same compound, the EC50 [3] was over 1000 µM, the EC50 [4] was 660 ± 60 µM and the Ki (rat α7 nAChR) was over 2300 µM. For the same compound, the “activity relative to that predicted if the one form was solely active” value [5] was at most 1%.
Compound `Cl.c1cncc(C2=NCCCN2)c1` [PTHP, 2-(3-pyridyl)-1,4,5,6-tetrahydropyrimidine hydrochloride] has an IC50 [1] of 0.47 ± 0.01 µM, a Ki (rat brain α4β2 nAChR; [10]) of 0.38 ± 0.07 µM and a fraction ionized ([2]; pH 7.4, predicted) of over 99%. The EC50 [3] was 3.64 ± 1.2 µM, the “pKa of amidinium group” value [6] was over 10 and the EC50 [4] was 1.7 ± 0.3 µM. The Ki (rat α7 nAChR) was 1.54 ± 0.76 µM and the “potency relative to that predicted for the anabaseine cyclic iminium form” value ([5]; from Figure 3, Figure 4 and Table 1) was “approximately 30%”.
With `[3H]CNC(=O)OCC[N+](C)(C)C` [[^3H]-MCC, [^3H]-methylcarbamylcholine] the “enhancement of binding with increasing pH” value (rat brain α4β2 nAChRs [7]; pH increased from 6.0 to 7.8, absence of anabaseine) was “approximately 3 fold”.
In the case of `CNCCCCC(=O)c1cccnc1` [MAPP, 5-methylamino-1-(3-pyridyl)-1-pentanone], the IC50 [1] is given as over 500 µM, the “concentration of cyclic imine or iminium form (N-methylanabaseine)” value ([8]; in water at physiological pH) is given as at most 5% and the Ki (rat brain α4β2 nAChR; [10]) is given as 10 µM. For the same compound, the EC50 [3] was over 2000 µM, the EC50 [4] was over 1000 µM and the Ki (rat α7 nAChR) was over 2000 µM. For the same compound, the “activity relative to that predicted if the one form was solely active” value [5] was at most 1%.
For `c1cncc(C2=NCCC2)c1` [myosmine], the “GABAA receptor agonist activity” value (human GABAA receptor) was “not GABAA agonists; also recorded: no activity was detected”.
For `c1cncc(C2=NCCCC2)c1` [Anabaseine, anabaseine, reference compound], the IC50 ([1]; read-out: IC50 Neuromuscular nAChR Torpedo Electric Organ) is given as 0.29 ± 0.18 µM, the “cyclic iminium (I+) form as fraction of total concentration” value ([8]; pH 7.4) is given as ~ 1/3 and the Ki (rat brain α4β2 nAChR) is given as 0.096 ± 0.01 µM. It also gave an EC50 ([3]; tsA201 cells, membrane depolarization, normalized to 0.5 μM epibatidine response, read-out: EC50 Neuronal nAChR Human α4β2) of 2.85 ± 1 µM, an EC50 ([4]; TE671 cells, membrane depolarization, normalized to 5 μM epibatidine response, read-out: EC50 Neuromuscular nAChR Human TE671) of 1.2 µM and a Ki (rat α7 nAChR; read-out: Ki Neuronal nAChR Rat α7) of 1.87 ± 0.1 µM. The “pH dependence of inhibition (displacement) of [3H]-MCC binding” value (rat brain α4β2 nAChRs [7]; fixed anabaseine concentration, pH 5.8 to 7.8, relative to [3H]-MCC alone at the same pH) was “did decrease with increased pH” and the “GABAA receptor agonist activity” value (human GABAA receptor) was “not GABAA agonists; also recorded: no activity was detected”.
In the case of `CNC(=O)OCC[N+](C)(C)C` [[^3H]-MCC, [^3H]-methylcarbamylcholine], the Kd (rat brain α4β2 nAChRs [9]) is given as 0.011 µM.
